Test results from patent publication US20250367167A1, “COMPOSITION FOR MITOCHONDRIAL MODIFICATION COMPRISING A COMBINATION OF TWO OR MORE NATURAL PIGMENTS” (University of Seoul Industry Cooperation Foundation, priority 2024, published 2025).
Where “and” joins values, the source holds several entries; their conditions need not be identical. Identical values can stand only once.

Assays:
[1] = tested on: mitochondrial electron transport chain protein complexes; experiment: ATP production after treatment with inhibitors of electron transport chain protein complexes; format: biochemical, human; details: 2 μM inhibitor, 1 hour; C@mt; light 640-680 nm, 5 mW, 80 minutes
Protocol: It is generally known that ATP is produced through protein complexes involved in the electron transport process during the oxidative phosphorylation process of mitochondria. Accordingly, an analysis was performed using the ATP Assay Kit (Abcam) to evaluate the amount of ATP production when treating with inhibitors for each protein complex.
A total of 50 μL of mitochondria including each combination of natural pigments (C@mt, BC@mt, AC@mt, or BAC@mt) and 2 μM of inhibitors (Rotenone, Malonate, Antimycin A or Cyanide) for each protein complex were added to the E-tube and incubated at room temperature for 1 hour. Then, the supernatant was removed using a centrifuge (12,000 g, 15 minutes) and resuspended in 50 μL of PBS. 50 μL of mitochondria including a combination of natural pigments treated with inhibitors were added to each 96-well black plate, and irradiated with light having a wavelength of 640-680 nm at an intensity of 5 mW for 80 minutes. […]
Then, the amount of ATP production was measured by measuring the fluorescence intensity (Ex/Em=535/587 nm) using a microplate reader. The amount of ATP production was calculated by subtracting the fluorescence value measured upon irradiation with light for 0 minutes from the fluorescence value measured upon irradiation with light for 80 minutes, and the results are shown in FIGS. 8A and 8B.

[2] = Absorption spectrum analysis of natural pigments (UV/Vis); format: physicochemical; details: 100 μM β-carotene, 60 μM anthocyanins, 40 μM chlorophyll a
Protocol: In order to analyze the absorbance spectra of three natural pigments (i.e., β-carotene, delphinidin chloride (anthocyanin), and chlorophyll a (Sigma-Aldrich)), the absorbance analysis was performed using a UV/Vis NANO spectrophotometer (Nabi).
In the drawing, “Experimental result” corresponds to the actually-measured absorption spectrum, and “Calculated result” represents the result of added-up values of the absorption spectrum of single natural pigments.
The results of the absorption spectrum analysis over time by mixing 100 µM B-carotene, 60 μM anthocyanin, and 40 μM chlorophyll a in various combinations are shown in FIG. 2E to 2H.

Row | Compound | ATP production after inhibitor treatment [1] | wavelength of high absorbance (absorption spectrum) [2]
1 | O=C(O)CC(=O)O [malonate, Malonate] | rapid decrease | 
2 | Oc1cc(O)c2cc(O)c(-c3cc(O)c(O)c(O)c3)[o+]c2c1 [anthocyanins, delphinidin chloride] |  | 555 nm
3 | C=Cc1c(C)c2cc3nc(c4c5[n-]c(cc6nc(cc1[n-]2)C(C)=C6CC)c(C)c5C(=O)[C@@H]4C(=O)OC)[C@@H](CCC(=O)OC/C=C(\C)CCC[C@H](C)CCC[C@H](C)CCCC(C)C)[C@@H]3C.[Mg+2] [chlorophyll a] |  | 415 nm and 662 nm
4 | CC1=C(/C=C/C(C)=C/C=C/C(C)=C/C=C/C=C(C)/C=C/C=C(C)/C=C/C2=C(C)CCCC2(C)C)C(C)(C)CCC1 [β-carotene] |  | 475 nm
